The values below come from ChEMBL document CHEMBL6120985, “Discovery of a potent PARP1 PROTAC as a chemosensitizer for the treatment of colorectal cancer” (Eur J Med Chem, 2025).

Series [1] concerns the target T1, Protein cereblon/Poly [ADP-ribose] polymerase 1 (Homo sapiens, UniProt P09874+Q96SW2). Nature of the series: PROTAC activity at CRBN/PARP1 in human HCT-116 cells assessed as degradation of PARP1. The format is cell-based.
Target sequence in this assay (P09874 whole entry): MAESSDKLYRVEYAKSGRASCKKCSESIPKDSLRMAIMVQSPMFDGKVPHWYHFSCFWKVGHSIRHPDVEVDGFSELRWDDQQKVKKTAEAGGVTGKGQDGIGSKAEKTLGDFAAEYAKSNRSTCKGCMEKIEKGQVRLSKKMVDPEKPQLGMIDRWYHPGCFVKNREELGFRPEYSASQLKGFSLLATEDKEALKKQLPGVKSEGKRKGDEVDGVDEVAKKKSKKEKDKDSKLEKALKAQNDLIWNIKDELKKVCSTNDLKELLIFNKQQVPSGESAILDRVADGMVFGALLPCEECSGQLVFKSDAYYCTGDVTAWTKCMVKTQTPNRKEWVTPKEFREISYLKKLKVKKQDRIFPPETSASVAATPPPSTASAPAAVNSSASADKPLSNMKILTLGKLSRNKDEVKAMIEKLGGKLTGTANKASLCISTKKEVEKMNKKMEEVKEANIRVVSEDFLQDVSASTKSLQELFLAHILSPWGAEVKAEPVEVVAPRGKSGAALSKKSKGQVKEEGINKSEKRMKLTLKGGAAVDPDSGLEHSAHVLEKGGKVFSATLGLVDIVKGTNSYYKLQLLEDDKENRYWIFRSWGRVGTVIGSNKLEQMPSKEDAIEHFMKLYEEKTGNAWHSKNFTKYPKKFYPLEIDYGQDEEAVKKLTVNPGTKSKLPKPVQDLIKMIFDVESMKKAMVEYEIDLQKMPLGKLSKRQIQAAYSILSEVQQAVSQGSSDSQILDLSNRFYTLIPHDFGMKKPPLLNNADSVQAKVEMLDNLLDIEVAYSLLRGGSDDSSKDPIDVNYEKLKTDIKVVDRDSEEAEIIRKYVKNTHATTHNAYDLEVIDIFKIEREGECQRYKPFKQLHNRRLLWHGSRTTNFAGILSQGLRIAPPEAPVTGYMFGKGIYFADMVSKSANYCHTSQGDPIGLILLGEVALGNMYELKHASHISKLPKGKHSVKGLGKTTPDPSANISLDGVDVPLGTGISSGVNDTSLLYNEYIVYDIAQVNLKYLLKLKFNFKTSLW
Target sequence in this assay (Q96SW2 whole entry): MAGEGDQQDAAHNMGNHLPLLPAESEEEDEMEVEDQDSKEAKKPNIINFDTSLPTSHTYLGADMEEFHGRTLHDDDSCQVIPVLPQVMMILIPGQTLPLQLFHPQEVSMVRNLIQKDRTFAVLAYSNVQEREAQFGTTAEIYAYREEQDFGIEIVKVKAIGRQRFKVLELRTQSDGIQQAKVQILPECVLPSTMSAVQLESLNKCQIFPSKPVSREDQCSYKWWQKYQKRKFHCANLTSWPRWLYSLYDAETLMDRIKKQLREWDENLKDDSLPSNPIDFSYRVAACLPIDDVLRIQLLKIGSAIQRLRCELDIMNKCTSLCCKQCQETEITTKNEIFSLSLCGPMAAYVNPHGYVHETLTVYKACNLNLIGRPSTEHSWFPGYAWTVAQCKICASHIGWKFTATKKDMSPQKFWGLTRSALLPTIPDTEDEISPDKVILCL
Series [2] addresses T1, Protein cereblon/Poly [ADP-ribose] polymerase 1. Nature of the series: PROTAC activity at CRBN/PARP1 in human HCT-116 cells assessed as maximum degradation of PARP1 relative to control. The format is cell-based.
Target sequence in this assay (P09874 2-1014 limits assumed): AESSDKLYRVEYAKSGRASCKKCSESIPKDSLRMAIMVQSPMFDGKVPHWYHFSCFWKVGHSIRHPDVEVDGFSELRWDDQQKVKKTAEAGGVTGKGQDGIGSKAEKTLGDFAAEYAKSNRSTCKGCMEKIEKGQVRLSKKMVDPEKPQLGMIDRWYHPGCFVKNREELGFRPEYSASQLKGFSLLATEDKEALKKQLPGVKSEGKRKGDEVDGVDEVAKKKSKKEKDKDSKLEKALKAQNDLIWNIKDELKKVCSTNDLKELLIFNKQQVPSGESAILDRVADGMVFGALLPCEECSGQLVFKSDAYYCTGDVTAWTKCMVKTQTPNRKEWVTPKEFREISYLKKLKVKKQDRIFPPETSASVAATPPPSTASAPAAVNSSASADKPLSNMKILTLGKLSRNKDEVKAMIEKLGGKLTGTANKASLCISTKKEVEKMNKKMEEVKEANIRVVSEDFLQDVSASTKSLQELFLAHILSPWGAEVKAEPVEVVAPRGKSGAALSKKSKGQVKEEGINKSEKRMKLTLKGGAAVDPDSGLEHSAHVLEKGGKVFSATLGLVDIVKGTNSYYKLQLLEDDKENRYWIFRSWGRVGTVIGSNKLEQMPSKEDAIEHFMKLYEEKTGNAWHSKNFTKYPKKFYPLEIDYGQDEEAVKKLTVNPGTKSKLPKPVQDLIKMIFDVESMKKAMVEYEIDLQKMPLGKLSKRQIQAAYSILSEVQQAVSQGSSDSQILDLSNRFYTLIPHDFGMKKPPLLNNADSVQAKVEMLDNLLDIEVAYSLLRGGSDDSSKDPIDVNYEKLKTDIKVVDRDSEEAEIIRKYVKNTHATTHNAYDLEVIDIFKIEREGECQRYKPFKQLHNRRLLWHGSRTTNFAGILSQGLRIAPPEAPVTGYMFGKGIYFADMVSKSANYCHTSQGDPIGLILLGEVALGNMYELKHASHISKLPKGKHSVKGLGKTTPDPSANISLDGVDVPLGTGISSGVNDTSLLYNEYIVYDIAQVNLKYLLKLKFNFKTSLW
Target sequence in this assay (Q96SW2 whole entry partner): as the sequence (Q96SW2 whole entry) above
The test system of series [3] is LoVo. Briefly: Cytotoxicity against human LoVo cells assessed as inhibition of cell growth measured after 72 hrs by CCK-8 method. It counts as functional, cell-based.
In series [4] the test system is HCT-116. Briefly: Cytotoxicity against human HCT-116 cells assessed as inhibition of cell growth measured after 72 hrs by CCK-8 method. The format is functional, cell-based. The conditions noted are these: HCT-116, 72 h.
In series [5] the test system is HCT-116. Nature of the series: Induction of apoptosis in human HCT-116 cells assessed as viable cells at 2.5 nM measured after 72 hrs by annexin V/FITC and PI staining based flow cytometry analysis (reference value: 89.6%). The format is functional. The conditions noted are these: read-out: Activity.
Series [6] has as its system HCT-116. Briefly: Induction of apoptosis in human HCT-116 cells assessed as early apoptotic cells at 2.5 nM measured after 72 hrs by annexin V/FITC and PI staining based flow cytometry analysis (reference value: 3.43%). It counts as functional.
Series [7] relates to HCT-116. Nature of the series: Induction of apoptosis in human HCT-116 cells assessed as late apoptotic cells at 2.5 nM measured after 72 hrs by annexin V/FITC and PI staining based flow cytometry analysis (reference value: 6.80%). The format is functional.
Series [8] concerns HCT-116. Nature of the series: Induction of apoptosis in human HCT-116 cells assessed as necrotic cells at 2.5 nM measured after 72 hrs by annexin V/FITC and PI staining based flow cytometry analysis (reference value: 0.16%). It counts as functional.
Series [9] has as its system SW-620. Briefly: Cytotoxicity against human SW620 cells assessed as inhibition of cell growth measured after 72 hrs by CCK-8 method. The format is functional, cell-based. The note with it: SW-620, 72 h.
Series [10] can be described thus: Cytotoxicity against HEK293T cells assessed as inhibition of cell growth measured after 72 hrs by CCK-8 method. The format is toxicity, cell-based, HEK-293T. The conditions noted are these: human.
The nature of series [11]: Cytotoxicity against human BEAS-2B cells assessed as inhibition of cell growth measured after 72 hrs by CCK-8 method. The format is toxicity, cell-based.

In the case of `NC(=O)c1cccc2cn(-c3ccc([C@@H]4CCCN(C(=O)CC5CCN(C(=O)CC6CCN(C(=O)C7CCN(c8ccc9c(c8)C(=O)N(C8CCC(=O)NC8=O)C9=O)CC7)CC6)CC5)C4)cc3)nc12` (some centres undefined), in series [1], the DC50 is greater than 20 µM. Moreover, the maximal effect (Emax) in [2] stood at 6.96%.
Take `NC(=O)c1cccc2cn(-c3ccc([C@@H]4CCCN(C(=O)CC5CCN(CC6CN(c7ccc8c(c7)C(=O)N(C7CCC(=O)NC7=O)C8=O)C6)CC5)C4)cc3)nc12` (some centres undefined): the 50% degradation concentration (DC50) in series [1] is greater than 20 µM. Besides, the Emax in [2] is 31.8%.
In the same order, the values of `NC(=O)c1cccc2cn(-c3ccc([C@@H]4CCCN(C(=O)COCCOCCOCCOCCNc5ccc6c(c5)C(=O)N(C5CCC(=O)NC5=O)C6=O)C4)cc3)nc12` (some centres undefined) are 0.06 µM and 78.9%.
With `NC(=O)c1cccc2cn(-c3ccc([C@@H]4CCCN(C(=O)CC5CCN(CCC6CCN(CC7CN(c8ccc9c(c8)C(=O)N(C8CCC(=O)NC8=O)C9=O)C7)CC6)CC5)C4)cc3)nc12` (some centres undefined), in series [1], the DC50 was found to be 0.5 µM. Also, in series [2], the Emax is 83.6%.
Regarding `NC(=O)c1cccc2cn(-c3ccc([C@@H]4CCCN(C(=O)COCCOCCOCCNc5ccc6c(c5)C(=O)N(C5CCC(=O)NC5=O)C6=O)C4)cc3)nc12` (some centres undefined), the DC50 in series [1] was greater than 20 µM. In series [2], the maximum response (Emax) came to 37.4%.
The matching figures for `NC(=O)c1cccc2cn(-c3ccc([C@@H]4CCCN(C(=O)CC5CCN(C(=O)CC6CCN(CC7CN(c8ccc9c(c8)C(=O)N(C8CCC(=O)NC8=O)C9=O)C7)CC6)CC5)C4)cc3)nc12` (some centres undefined): 16.3 µM and 47.6%.
On to `NC(=O)c1cccc2cn(-c3ccc([C@@H]4CCCN(C(=O)CCCCCCCCNc5ccc6c(c5)C(=O)N(C5CCC(=O)NC5=O)C6=O)C4)cc3)nc12` (some centres undefined), for which the DC50 in series [1] was 2.21 µM. Also, the Emax in series [2] was determined as 58.8%.
As to `NC(=O)c1cccc2cn(-c3ccc([C@@H]4CCCN(C(=O)CC5CCN(C(=O)C6CCN(c7ccc8c(c7)C(=O)N(C7CCC(=O)NC7=O)C8=O)CC6)CC5)C4)cc3)nc12` (some centres undefined), in [1], the DC50 was greater than 20 µM. In addition, the Emax in series [2] is 35.6%.
As to `NC(=O)c1cccc2cn(-c3ccc([C@@H]4CCCN(C(=O)C5CCN(CC6CN(c7ccc8c(c7)C(=O)N(C7CCC(=O)NC7=O)C8=O)C6)CC5)C4)cc3)nc12` (some centres undefined), the DC50 in [1] was 19 µM. Also, the Emax in series [2] was determined as 53.9%.
In the same order, the values of `NC(=O)c1cccc2cn(-c3ccc([C@@H]4CCCN(C(=O)CC5CCN(CC6CCN(c7ccc8c(c7)C(=O)N(C7CCC(=O)NC7=O)C8=O)CC6)CC5)C4)cc3)nc12` (some centres undefined) are 15.6 µM and 59.4%.
Regarding `NC(=O)c1cccc2cn(-c3ccc([C@@H]4CCCN(CCC5CCN(CCC6CCN(CC7CN(c8ccc9c(c8)C(=O)N(C8CCC(=O)NC8=O)C9=O)C7)CC6)CC5)C4)cc3)nc12` (some centres undefined), the half-maximal degradation concentration (DC50) in series [1] amounted to 0.03 µM. In addition, in series [2], the maximal response (Emax) was found to be 71%.
For `NC(=O)c1cccc2cn(-c3ccc([C@@H]4CCCN(C(=O)CC5CCN(C(=O)CC6CCN(c7ccc8c(c7)C(=O)N(C7CCC(=O)NC7=O)C8=O)CC6)CC5)C4)cc3)nc12` (some centres undefined), in series [1], the DC50 was greater than 20 µM.
In the case of `CCc1c2c(nc3ccc(O)cc13)-c1cc3c(c(=O)n1C2)COC(=O)[C@]3(O)CC` [7-ETHYL-10-HYDROXYCAMPTOTHECIN], the IC50 in series [3] and in [4] was 0.0029 µM in each case. Moreover, the viability at 0.0025 µM in series [5] is 76.7%. Also, the Activity in series [6] is 5.48%; in series [7] it was 17.1%; in series [8], 0.77%.
As to `NC(=O)c1cccc2cn(-c3ccc([C@@H]4CCCN(C(=O)C5CCN(CC6CCN(c7ccc8c(c7)C(=O)N(C7CCC(=O)NC7=O)C8=O)CC6)CC5)C4)cc3)nc12` (some centres undefined), the half-maximal degradation concentration (DC50) in [1] is greater than 20 µM. In addition, the Emax in series [2] was 30.2%.
As for `NC(=O)c1cccc2cn(-c3ccc([C@@H]4CCCNC4)cc3)nc12` [NIRAPARIB], the concentration for half-maximal inhibition (IC50) in [9] came to 0.49 µM.
Take `NC(=O)c1cccc2cn(-c3ccc([C@@H]4CCCN(C(=O)CC5CCN(CCC6CCN(CC7CCN(c8ccc9c(c8)C(=O)N(C8CCC(=O)NC8=O)C9=O)C7)CC6)CC5)C4)cc3)nc12` (some centres undefined): the DC50 in series [1] is greater than 20 µM. The maximal effect (Emax) in series [2] is 33.6%.
As to `NC(=O)c1cccc2cn(-c3ccc([C@@H]4CCCN(C(=O)COCCOCCNc5ccc6c(c5)C(=O)N(C5CCC(=O)NC5=O)C6=O)C4)cc3)nc12` (some centres undefined), in [1], the DC50 was greater than 20 µM. The Emax in series [2] turned out to be 49.1%.
Consider `NC(=O)c1cccc2cn(-c3ccc([C@@H]4CCCN(C(=O)COCCOCCOCCOCCOCCNc5ccc6c(c5)C(=O)N(C5CCC(=O)NC5=O)C6=O)C4)cc3)nc12` (some centres undefined), for which the DC50 in series [1] turned out to be 19.1 µM. Also, the maximal effect (Emax) in series [2] was 47.7%.
In the same order, the values of `NC(=O)c1cccc2cn(-c3ccc([C@@H]4CCCN(C(=O)CCCCNc5ccc6c(c5)C(=O)N(C5CCC(=O)NC5=O)C6=O)C4)cc3)nc12` (some centres undefined) are greater than 20 µM and 29.8%.
In the case of `NC(=O)c1cccc2cn(-c3ccc([C@@H]4CCCN(C(=O)CCCCCCNc5ccc6c(c5)C(=O)N(C5CCC(=O)NC5=O)C6=O)C4)cc3)nc12` (some centres undefined), the half-maximal degradation concentration (DC50) in [1] was greater than 20 µM. In addition, the Emax in series [2] was determined as 37.3%.
In the same order, the values of `NC(=O)c1cccc2cn(-c3ccc([C@@H]4CCCN(C(=O)CC5CCN(CCC6CCN(CC7CCN(c8ccc9c(c8)C(=O)N(C8CCC(=O)NC8=O)C9=O)CC7)CC6)CC5)C4)cc3)nc12` (some centres undefined) are 0.04 µM and 57.1%.
Take `NC(=O)c1cccc2cn(-c3ccc([C@@H]4CCCN(C(=O)CC5CCN(C(=O)CC6CCN(CC7CCN(c8ccc9c(c8)C(=O)N(C8CCC(=O)NC8=O)C9=O)C7)CC6)CC5)C4)cc3)nc12` (some centres undefined): the 50% degradation concentration (DC50) in series [1] amounted to 20.1 µM. Moreover, the Emax in series [2] was found to be 49.8%.
Take `O=C(CCCCCCCCCCC(=O)N1CCN(C(=O)c2cc(Cc3n[nH]c(=O)c4ccccc34)ccc2F)CC1)NCCNc1cccc2c1C(=O)N(C1CCC(=O)NC1=O)C2=O` (centres undefined): the 50% inhibitory concentration (IC50) in series [9] and in [3] was greater than 10 µM throughout. The 50% inhibitory concentration (IC50) at 72 h in series [10] was 1.86 µM; in series [11] it was 3.7 µM.
For `NC(=O)c1cccc2cn(-c3ccc([C@@H]4CCCN(C(=O)CC5CCN(C(=O)CC6CCN(CC7CCN(c8ccc9c(c8)C(=O)N(C8CCC(=O)NC8=O)C9=O)CC7)CC6)CC5)C4)cc3)nc12` (some centres undefined), in series [1], the 50% degradation concentration (DC50) was 0.23 µM. Besides, the Emax in series [2] was determined as 65.1%.
For the compound `NC(=O)c1cccc2cn(-c3ccc([C@@H]4CCCN(C(=O)C5CCN(CC6CCN(c7ccc8c(c7)C(=O)N(C7CCC(=O)NC7=O)C8=O)C6)CC5)C4)cc3)nc12` (some centres undefined), the DC50 in series [1] was greater than 20 µM. Further, the Emax in series [2] worked out at 32.8%.
For the compound `NC(=O)c1cccc2cn(-c3ccc([C@@H]4CCCN(C(=O)CC5CCN(CCC6CCN(c7ccc8c(c7)C(=O)N(C7CCC(=O)NC7=O)C8=O)CC6)CC5)C4)cc3)nc12` (some centres undefined), in [1], the DC50 is greater than 20 µM. For the same compound, in series [2], the maximal effect (Emax) was 30.1%.
In the same order, the values of `NC(=O)c1cccc2cn(-c3ccc([C@@H]4CCCN(C(=O)C5CCN(C(=O)C6CCN(c7ccc8c(c7)C(=O)N(C7CCC(=O)NC7=O)C8=O)CC6)CC5)C4)cc3)nc12` (some centres undefined) are greater than 20 µM and 15.7%.
`NC(=O)c1cccc2cn(-c3ccc([C@@H]4CCCN(C(=O)CC5CCN(CC6CCN(c7ccc8c(c7)C(=O)N(C7CCC(=O)NC7=O)C8=O)C6)CC5)C4)cc3)nc12` (some centres undefined): in [1], the DC50 was greater than 20 µM.
